The text below walks through data of ChEMBL document CHEMBL1201862, “PubChem BioAssay data set” (2004).

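48-hour exposure; five concentrations; linearly interpolated endpoints. GI50 is the concentration that inhibits growth by half.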 Active and inactive are the calls of the source. Rule as the data show it: active = GI50 up to about 1.1 µM and inactive = higher.

Among the test systems are ACHN; CCRF-CEM; COLO 205; HCC 2998; HOP-62; K562; M14; MCF7; NCI-H226; OVCAR-3; SF-268; SNB-19; UO-31; 786-0; CAKI-1; HCT-116; OVCAR-4; SF-295; SK-OV-3; UACC-62.
Common to all, as to test: NCI tumour cell line growth inhibition, 48 h

In the case of `CC(=O)OC/C=C\Cn1ncc(=O)[nH]c1=O`, the GI50 is 21.6 µM (inactive) in the assay on ACHN; 17.3 µM (inactive) in the assay on CCRF-CEM; 16 µM (inactive) in the assay on COLO 205; 19 µM (inactive) with HCC 2998; 20.8 µM (inactive) with HOP-62; 23 µM (inactive) with K562. In addition, the GI50 in the assay with M14 is 19 µM (inactive); with MCF7 it was 13 µM (inactive); in the assay with NCI-H226, 18 µM (inactive); in the assay with OVCAR-3 it was 28.2 µM (inactive); with SF-268, 18 µM (inactive); in the assay with SNB-19 it was 33.4 µM (inactive). The GI50 with UO-31 is 16.1 µM (inactive).
Regarding `CN(N)c1nc(N)c(C#N)c(C#N)c1C#N`, the GI50 in the assay with 786-0, in the assay on ACHN, in the assay with CAKI-1, with CCRF-CEM, in the assay on COLO 205 and in the assay on HCC 2998 was > 10 µM (inactive) each time. For the same compound, the GI50 with HCT-116, in the assay on HOP-62, in the assay on K562, in the assay on M14, in the assay with MCF7 and with OVCAR-3 was > 10 µM (inactive) throughout. Further, the GI50 in the assay on OVCAR-4, in the assay on SF-268, in the assay with SF-295, in the assay with SK-OV-3, in the assay on SNB-19 and with UACC-62 was > 10 µM (inactive) in each case.
Consider `CC1(C)CC[C@]2(C)CC[C@]3(C)C(=CC[C@@H]4[C@@]5(C)CCC(=O)C(C)(C)[C@@H]5[C@H](O)C[C@]43C)[C@@H]2C1`, for which the GI50 in the assay on 786-0 was 15.5 µM (inactive); in the assay on ACHN it was 16.9 µM (inactive); in the assay on CAKI-1, 18.3 µM (inactive); with CCRF-CEM, 30.8 µM (inactive); with COLO 205 it was 17.4 µM (inactive); in the assay with HCC 2998 it was 15.5 µM (inactive). The GI50 in the assay with HCT-116 is 16.3 µM (inactive); in the assay with HOP-62, 17 µM (inactive); in the assay on M14, 19 µM (inactive); in the assay on MCF7, 19 µM (inactive); in the assay on OVCAR-3, 16.5 µM (inactive); in the assay on OVCAR-4, 18.1 µM (inactive). In addition, the GI50 in the assay with SF-268 was 17.8 µM (inactive); in the assay on SF-295, 17.6 µM (inactive); with SK-OV-3 it was 17.6 µM (inactive); with SNB-19 it was 15.3 µM (inactive); in the assay with UACC-62, 15.9 µM (inactive).
`Nc1cc(S(=O)(=O)O)cc2cc(S(=O)(=O)O)c(/N=N/c3ccc(-c4ccc(/N=N/c5c(S(=O)(=O)O)cc6cc(S(=O)(=O)O)cc(N)c6c5O)cc4)cc3)c(O)c12`: the GI50 in the assay with CCRF-CEM, in the assay on COLO 205, in the assay on HCC 2998, in the assay with HCT-116, with HOP-62 and with K562 was > 100 µM (inactive) throughout. In addition, the GI50 in the assay on MCF7, with NCI-H226, in the assay on OVCAR-3, with OVCAR-4, in the assay with SF-268 and with SF-295 was > 100 µM (inactive) each time. In addition, the GI50 in the assay on SK-OV-3, in the assay with SNB-19 and in the assay on UO-31 was > 100 µM (inactive) each time.
On to `O=C(Nc1ccccc1Br)c1cccc([N+](=O)[O-])c1O`, for which the GI50 was 3.99 µM (inactive) in the assay with 786-0; 3.67 µM (inactive) with ACHN; 3.37 µM (inactive) in the assay with CAKI-1; 2.78 µM (inactive) with CCRF-CEM; 3.66 µM (inactive) with COLO 205; 2.49 µM (inactive) in the assay with HCC 2998. Besides, the GI50 in the assay on HCT-116 is 3.84 µM (inactive); in the assay with HOP-62, 2.32 µM (inactive); in the assay with K562, 3.13 µM (inactive); in the assay with M14 it was 4.32 µM (inactive); with NCI-H226, 3.3 µM (inactive); in the assay on OVCAR-3 it was 2.07 µM (inactive). For the same compound, the GI50 was 3.01 µM (inactive) in the assay with OVCAR-4; 4.47 µM (inactive) in the assay with SF-268; 3.87 µM (inactive) in the assay on SF-295; 3.95 µM (inactive) in the assay with SK-OV-3; 3.81 µM (inactive) in the assay on SNB-19; 1.91 µM (inactive) in the assay on UACC-62. In the assay on UO-31, the GI50 was 1.89 µM (inactive).
For `CC1(C)[C@@H]2C[C@H]1C(Cc1ccccc1C[C@H]1c3cc(-c4ccccn4)ncc3[C@H]3C[C@@H]1C3(C)C)c1cc(-c3ccccn3)ncc12` (stereo partly specified), the GI50 in the assay on 786-0 was 0.253 µM (active); in the assay with ACHN, 0.204 µM (active); in the assay with CAKI-1 it was 0.568 µM (active); with CCRF-CEM it was 0.223 µM (active); in the assay with COLO 205, 0.399 µM (active); in the assay with HCC 2998, 0.982 µM (active). Moreover, the GI50 in the assay on HCT-116 is 0.342 µM (active); in the assay on HOP-62, 0.147 µM (active); with K562, 0.356 µM (active); in the assay on M14 it was 0.28 µM (active); in the assay with MCF7 it was 0.362 µM (active); in the assay with OVCAR-3, 0.387 µM (active). Further, the GI50 in the assay on OVCAR-4 was 0.716 µM (active); with SF-268, 0.292 µM (active); with SF-295, 0.408 µM (active); in the assay on SK-OV-3, 0.518 µM (active); in the assay on SNB-19, 0.611 µM (active); in the assay with UACC-62 it was 0.292 µM (active). Besides, the GI50 in the assay with UO-31 was 0.312 µM (active).
Take `CCOC(=O)/C=C1/Oc2ccccc2C1(C)O` (stereo unspecified): the GI50 in the assay on 786-0, in the assay on ACHN, in the assay on CAKI-1, with CCRF-CEM, with COLO 205 and in the assay on HCC 2998 was > 100 µM (inactive) in each case. Besides, the GI50 in the assay on HCT-116, in the assay on HOP-62, in the assay with K562, with M14, with NCI-H226 and in the assay with OVCAR-3 was > 100 µM (inactive) throughout. Also, the GI50 in the assay on OVCAR-4, with SF-268, in the assay with SF-295, with SK-OV-3, with SNB-19 and in the assay on UACC-62 was > 100 µM (inactive) throughout. The GI50 with UO-31 was > 100 µM (inactive).
Turning to `COC(=O)C1(Cc2ccccc2)Cc2cc3c(cc2C1)CCC3`, the GI50 was 31.3 µM (inactive) in the assay on 786-0; 30 µM (inactive) in the assay with ACHN; 14.9 µM (inactive) in the assay on CCRF-CEM; 16.7 µM (inactive) in the assay with COLO 205; 34.1 µM (inactive) with HCC 2998; 22 µM (inactive) in the assay on HCT-116. Moreover, the GI50 is 50.2 µM (inactive) in the assay on HOP-62; 17 µM (inactive) in the assay on K562; 30.6 µM (inactive) in the assay on M14; 15.5 µM (inactive) with MCF7; 22 µM (inactive) in the assay on NCI-H226; 33.7 µM (inactive) in the assay on OVCAR-3. Besides, the GI50 in the assay with OVCAR-4 was 30.7 µM (inactive); with SF-268 it was 41.4 µM (inactive); with SF-295, 37.5 µM (inactive); with SK-OV-3, 32.3 µM (inactive); in the assay on SNB-19 it was 37.6 µM (inactive); with UACC-62, 29.8 µM (inactive). Moreover, the GI50 in the assay on UO-31 was 24 µM (inactive).
For `COc1cc2c(cc1OC)C(=O)/C(=C/c1cc(C)cc(C)c1)C2`, the GI50 in the assay on 786-0 was 0.0982 µM (active); in the assay with ACHN, 12.9 µM (inactive); with CCRF-CEM it was 0.0514 µM (active); in the assay with COLO 205, 0.0735 µM (active); in the assay on HCC 2998, 0.0601 µM (active); with HCT-116, 0.0445 µM (active). Besides, the GI50 in the assay on HOP-62 is 0.127 µM (active); in the assay with K562, 0.0232 µM (active); in the assay on M14 it was 0.148 µM (active); in the assay with MCF7, 0.385 µM (active); in the assay on NCI-H226, 0.172 µM (active); with OVCAR-3, 0.0324 µM (active). Besides, the GI50 in the assay on OVCAR-4 is 19.8 µM (inactive); in the assay with SF-268, 12.9 µM (inactive); in the assay on SF-295, < 0.0301 µM (active); in the assay with SK-OV-3, 0.308 µM (active); in the assay with SNB-19, 1.1 µM (active); in the assay with UACC-62, 0.0443 µM (active). For the same compound, the GI50 in the assay on UO-31 was 1.95 µM (inactive).
For the compound `OC1COC2CC(Nc3ccccn3)OC12` (stereo unspecified), the GI50 with 786-0, in the assay with ACHN, with CAKI-1, in the assay on CCRF-CEM, with COLO 205 and with HCC 2998 was > 100 µM (inactive) each time. The GI50 with HCT-116, in the assay on HOP-62, in the assay with K562, with M14, in the assay with NCI-H226 and in the assay on OVCAR-3 was > 100 µM (inactive) in each case. The GI50 with OVCAR-4, in the assay with SF-268, in the assay with SF-295, in the assay on SK-OV-3, in the assay on SNB-19 and in the assay with UACC-62 was > 100 µM (inactive) in each case. The GI50 in the assay on UO-31 is > 100 µM (inactive).
As for `CC(C)=C1C2CC3(C)CCC2(C)CCC13.CC1=CCC2C3(C)CCC2(C(C)C)C1C3` (stereo unspecified), the GI50 with 786-0 was 21.5 µM (inactive); in the assay with ACHN it was 20.3 µM (inactive); in the assay on CAKI-1, 17.3 µM (inactive); in the assay on CCRF-CEM it was 24.5 µM (inactive); with COLO 205, 26.7 µM (inactive); in the assay with HCC 2998, 23.1 µM (inactive). The GI50 is 31.6 µM (inactive) in the assay with HCT-116; 22.3 µM (inactive) in the assay on HOP-62; 31.4 µM (inactive) in the assay on K562; 20.1 µM (inactive) in the assay with M14; 19 µM (inactive) in the assay on MCF7; 16.5 µM (inactive) in the assay on OVCAR-3. For the same compound, the GI50 is 26.1 µM (inactive) with OVCAR-4; 19.3 µM (inactive) in the assay on SF-268; 20 µM (inactive) in the assay on SF-295; > 100 µM (inactive) with SK-OV-3; 18.4 µM (inactive) in the assay with SNB-19; 64.1 µM (inactive) in the assay with UACC-62. For the same compound, the GI50 in the assay on UO-31 is 26.7 µM (inactive).
